Read-outs that look alike come from different tables or passages of the source.
What was measured:
[1] = biological target: T1, HIV-1 protease (Human immunodeficiency virus type 1 group M subtype B, UniProt P04585); assay: biochemical; settings: for inhibition at 0.37 µM: read-out: HIV-1 Protease % Inhib, dose 0.370 uM; for inhibition at 1.1 µM: read-out: HIV-1 Protease % Inhib, dose 1.100 uM; for inhibition at 3.3 µM: read-out: HIV-1 Protease % Inhib, dose 3.300 uM; for inhibition at 10 µM: read-out: HIV-1 Protease % Inhib, dose 10.000 uM; for inhibition at 30 µM: read-out: HIV-1 Protease % Inhib, dose 30.000 uM; for inhibition at 0.123 µM: read-out: HIV-1 Protease % Inhib, dose 0.123 uM
Method in brief: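 Percent inhibition derived from fluorescent cleavage product separated by filtration after streptavidin-bead capture of intact biotin/FITC substrate. Reaction: enzyme (10 μl, 0.1 μM stock) with substrate (20 μl, 0.2 μM stock) and compound, 1 h at room temperature in dark, pH 5.5 acetate buffer with 1.0 M NaCl and 0.05% NP-40.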

[2] = biological target: T1, HIV-1 protease; assay: biochemical
Method in brief: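 Enzyme (40 nM stock) and substrate (200 μM stock) incubated with inhibitor, 24–48 two-fold serial concentrations, for 90 min at room temperature, then quenched with avidin beads. Nonlinear least-squares analysis gives Ki; a known-Ki inhibitor validates each run.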

Row | Compound | inhibition at 0.37 µM [1] | inhibition at 1.1 µM [1] | inhibition at 3.3 µM [1] | inhibition at 10 µM [1] | inhibition at 30 µM [1] | Ki ([2]; read-out: HIV-1 FITC KI) | inhibition at 0.123 µM [1] | inhibition at 1 µM ([1]; read-out: HIV-1 Protease % Inhib, dose 1.000 uM) | inhibition at 100 µM ([1]; read-out: HIV-1 Protease % Inhib, dose 100.000 uM) | Ki ([2]; HIV-1 FITC KI)
1 | CCCC(=O)Nc1cccc(C(c2c(O)c3c(oc2=O)CCCCCC3)C2CC2)c1 (stereo not drawn) [Example 209, N-[3-[Cyclopropyl(5,6,7,8,9,10-hexahydro-4-hydroxy-2-oxo-2H-cycloocta[b]pyran-3-yl)methyl]phenyl]-butanamide] | 43.2% | 80% | 96% | 104% | 100% | 24.1 nM |  |  |  | 
2 | O=c1oc2c(c(O)c1C(c1cccc(NS(=O)(=O)c3cccc(O)c3)c1)C1CC1)CCCCCC2 (stereo not drawn) [Example 405, N-[3-[Cyclopropyl(5,6,7,8,9,10-hexahydro-4-hydroxy-2-oxo-2H-cycloocta[b]pyran-3-yl)methyl]phenyl]-3-hydroxy-benzenesulfonamide] | 88.6% | 101% | 106% | 101% | 77.2% | 3.13 nM | 46.5% |  |  | 
3 | COCC1CCCCCc2c1oc(=O)c(C(c1ccccc1)C1CC1)c2O (stereo not drawn) [Example 177, 3-(Cyclopropylphenylmethyl)-5,6,7,8,9,10-hexahydro4-hydroxy-10-(methoxymethyl)-2H-cycloocta[b]pyran-2-one] | 16.9% | 53.9% | 88.9% | 104% | 104% | 55 nM |  |  |  | 
4 | O=C(CCn1ccc2ccccc21)Nc1cccc(C(c2c(O)c3c(oc2=O)CCCCC3)C2CC2)c1 (stereo not drawn) [Example 215, 1H-Indole-1-propanamide, N-[3-[cyclopropyl(2,5,6,7,8,9-hexahydro-4-hydroxy-2-oxocyclohepta[b]pyran-3-yl)methyl]phenyl]-] | 43.3% | 76.1% | 97.9% | 107% | 98.5% | 27.8 nM | 13.5% |  |  | 
5 | CCC(c1ccccc1)c1c(O)c2ccc(OCCOCCOCCOC)cc2oc1=O (stereo not drawn) [Example 154] |  |  |  | 77.1% |  |  |  | 13.6% | 96% | 520 nM
6 | O=c1oc2c(c(O)c1C(c1ccccc1)C1CC1)CCCCC2C(O)C1CC1 (stereo not drawn) [Example 195, 9-(Cyclopropylhydroxymethyl)-3-(cyclopropylphenylmethyl)-6,7,8,9-tetrahydro-4-hydroxy-cyclohepta[b]pyran-2(5H)-one] | 23.5% | 71.4% | 90.8% | 108% | 117% | 22 nM |  |  |  | 
7 | CC(C)(C)OC(=O)NCCC(=O)Nc1cccc(C(c2c(O)c3c(oc2=O)CCCCC3)C2CC2)c1 (stereo not drawn) [Example 214, Carbamic acid. [3-[[3-[cyclopropyl(2,5,6,7,8,9-hexahydro-4-hydroxy-2-oxocyclohepta[b]pyran-3-yl)methyl]phenyl]amino]-3-oxopropyl]-, 1,1-dimethylethyl ester] | 54% | 74.1% | 88.6% | 95.2% | 96.2% | 19.3 nM | 18.7% |  |  | 
8 | O=c1oc2c(c(O)c1C(c1cccs1)C1CC1)CCCCCC2 (stereo not drawn) [Example 379, 3-(α-Cyclopropylthien-2-ylmethyl)-4-hydroxy-5,6,7,8,9,10-hexahydrocycloocta[b]pyran-2-one] | 48.6% | 84.5% | 96.2% | 107% | 113% | 18.3 nM |  |  |  | 
9 | O=c1oc2c(c(O)c1[C@H](c1cccc(NS(=O)(=O)c3cccc4cccnc34)c1)C1CC1)CCCCCC2 [Example 256, (-)-N-[3-[Cyclopropyl(5,6,7,8,9,10-hexahydro-4-hydroxy-2-oxo-2H-cycloocta[b]pyran-3-yl)methyl]phenyl]-8-quinolinesulfonamide] | 91.3% | 99% | 95% | 101% | 96.1% | 0.42 nM | 82.5% |  |  | 
10 | O=C(CCn1ccc2ccccc21)Nc1cccc(C(c2c(O)c3c(oc2=O)CCCCCC3)C2CC2)c1 (stereo not drawn) [Example 197, 1H-Indole-1-propanamide, N-[3-[cyclopropyl(5,6,7,8,9,10-hexahydro-4-hydroxy-2-oxo-2H-cycloocta[b]pyran-3-yl)methyl]phenyl]-] | 65.6% | 76.6% | 88.7% | 91.8% | 89.6% | 14.1 nM | 34% |  |  | 
